Data reported in PMC7955776 (Investigational new drugs, 2020).
Where “and” joins values, the source holds several entries; their conditions need not be identical. Equal entries are not always repeated. Marks after values point to notes of the source that are not given here.

What was measured:
[1] = Phase I 3 + 3 dose escalation: DLT and MTD; settings: human, in vivo
[2] = Safety: adverse events graded by CTCAE v4.0; type: in vivo, human; settings: with paclitaxel and carboplatin
[3] = RO4929097 plasma pharmacokinetics; type: in vivo, human; settings: for AUC(0-inf) / Cmax / half-life / Vd/F: human, plasma, oral; for Vd/F: Vz/F
stage II-III TNBC = assay: Clinico-pathological response to neoadjuvant treatment; type: in vivo, human
[4] = ECG monitoring during cycle 1; type: in vivo, human; settings: 10 patients, cycle 1, before and after dosing on days 1 and 17
[5] = 20 mg dose, Cycle 1 Day 15, N = 3, mean ± SD
[6] = 10 mg, 10 mg dose, Cycle 1 Day 1, N = 8, mean ± SD
[7] = 10 mg, 10 mg dose, Cycle 1 Day 15, N = 7, mean ± SD
[8] = 10 mg, 10 mg dose, Cycle 1 Day 17, N = 6, mean ± SD
[9] = 20 mg, 20 mg dose, Cycle 1 Day 1, N = 4, mean ± SD
[10] = 20 mg, 20 mg dose, Cycle 1 Day 15, N = 3, mean ± SD
[11] = 20 mg, 20 mg dose, Cycle 1 Day 17, N = 2, mean ± SD

CC(C)(C(=O)NCC(F)(F)C(F)(F)F)C(=O)N[C@@H]1C(=O)Nc2ccccc2-c2ccccc21 [RO4929097]
DLTs observed, all dose levels [1]: 2
SAE: depression ([2]; N = 1): 7%
SAE: glucose intolerance ([2]; N = 1): 7%
SAE: hyperglycemia ([2]; N = 1): 7%
SAE: leukopenia ([2]; N = 1): 7%
SAE: neutropenia ([2]; N = 1): 7%
SAE: thrombocytopenia ([2]; N = 1): 7%
SAE: wound dehiscence ([2]; N = 1): 7%
SAE: wound infection ([2]; N = 1): 7%
SAE: hypertension ([2]; N = 3): 21%
Serious adverse events (SAEs) reported, number ([2]; duration of study): Eleven
Alopecia, All Grades ([2]; treatment-related AE, N = 14): 9 (64) N (%)
Alopecia, Grade 1 ([2]; treatment-related AE, N = 14): 3 (21) N (%)
Alopecia, Grade 2 ([2]; treatment-related AE, N = 14): 6 (43) N (%)
Alopecia, Grade 3 ([2]; treatment-related AE, N = 14): 0 (0) N (%)
Alopecia, Grade 4 ([2]; treatment-related AE, N = 14): 0 (0) N (%)
Anemia, All Grades ([2]; treatment-related AE, N = 14): 12 (86) N (%)
Anemia, Grade 1 ([2]; treatment-related AE, N = 14): 0 (0) N (%)
Anemia, Grade 2 ([2]; treatment-related AE, N = 14): 8 (57) N (%)
Anemia, Grade 3 ([2]; treatment-related AE, N = 14): 4 (29%) N (%) and 4 (29) N (%)
Anemia, Grade 4 ([2]; treatment-related AE, N = 14): 0 (0) N (%)
Anorexia, All Grades ([2]; treatment-related AE, N = 14): 9 (64) N (%)
Anorexia, Grade 1 ([2]; treatment-related AE, N = 14): 8 (57) N (%)
Anorexia, Grade 2 ([2]; treatment-related AE, N = 14): 1 (7) N (%)
Anorexia, Grade 3 ([2]; treatment-related AE, N = 14): 0 (0) N (%)
Anorexia, Grade 4 ([2]; treatment-related AE, N = 14): 0 (0) N (%)
Constipation, All Grades ([2]; treatment-related AE, N = 14): 10 (71) N (%)
Constipation, Grade 1 ([2]; treatment-related AE, N = 14): 10 (71) N (%)
Constipation, Grade 2 ([2]; treatment-related AE, N = 14): 0 (0) N (%)
Constipation, Grade 3 ([2]; treatment-related AE, N = 14): 0 (0) N (%)
Constipation, Grade 4 ([2]; treatment-related AE, N = 14): 0 (0) N (%)
Dyspnea, All Grades ([2]; treatment-related AE, N = 14): 10 (71) N (%)
Dyspnea, Grade 1 ([2]; treatment-related AE, N = 14): 7 (50) N (%)
Dyspnea, Grade 2 ([2]; treatment-related AE, N = 14): 3 (21) N (%)
Dyspnea, Grade 3 ([2]; treatment-related AE, N = 14): 0 (0) N (%)
Dyspnea, Grade 4 ([2]; treatment-related AE, N = 14): 0 (0) N (%)
Elevated aspartate aminotransferase, All Grades ([2]; treatment-related AE, N = 14): 6 (43) N (%)
Elevated aspartate aminotransferase, Grade 1 ([2]; treatment-related AE, N = 14): 6 (43) N (%)
Elevated aspartate aminotransferase, Grade 2 ([2]; treatment-related AE, N = 14): 0 (0) N (%)
Elevated aspartate aminotransferase, Grade 3 ([2]; treatment-related AE, N = 14): 0 (0) N (%)
Elevated aspartate aminotransferase, Grade 4 ([2]; treatment-related AE, N = 14): 0 (0) N (%)
Epistaxis, All Grades ([2]; treatment-related AE, N = 14): 8 (57) N (%)
Epistaxis, Grade 1 ([2]; treatment-related AE, N = 14): 7 (50) N (%)
Epistaxis, Grade 2 ([2]; treatment-related AE, N = 14): 1 (7) N (%)
Epistaxis, Grade 3 ([2]; treatment-related AE, N = 14): 0 (0) N (%)
Epistaxis, Grade 4 ([2]; treatment-related AE, N = 14): 0 (0) N (%)
Fatigue, All Grades ([2]; treatment-related AE, N = 14): 11 (79) N (%)
Fatigue, Grade 1 ([2]; treatment-related AE, N = 14): 5 (36) N (%)
Fatigue, Grade 2 ([2]; treatment-related AE, N = 14): 5 (36) N (%)
Fatigue, Grade 3 ([2]; treatment-related AE, N = 14): 1 (7%) N (%) and 1 (7) N (%)
Fatigue, Grade 4 ([2]; treatment-related AE, N = 14): 0 (0) N (%)
Headache, All Grades ([2]; treatment-related AE, N = 14): 9 (64) N (%)
Headache, Grade 1 ([2]; treatment-related AE, N = 14): 8 (57) N (%)
Headache, Grade 2 ([2]; treatment-related AE, N = 14): 1 (7) N (%)
Headache, Grade 3 ([2]; treatment-related AE, N = 14): 0 (0) N (%)
Headache, Grade 4 ([2]; treatment-related AE, N = 14): 0 (0) N (%)
Hyperglycemia, All Grades ([2]; treatment-related AE, N = 14): 7 (50) N (%)
Hyperglycemia, Grade 1 ([2]; treatment-related AE, N = 14): 7 (50) N (%)
Hyperglycemia, Grade 2 ([2]; treatment-related AE, N = 14): 0 (0) N (%)
Hyperglycemia, Grade 3 ([2]; treatment-related AE, N = 14): 0 (0) N (%)
Hyperglycemia, Grade 4 ([2]; treatment-related AE, N = 14): 0 (0) N (%)
Hypertension, All Grades ([2]; treatment-related AE, N = 14): 8 (57) N (%)
Hypertension, Grade 1 ([2]; treatment-related AE, N = 14): 4 (29) N (%)
Hypertension, Grade 2 ([2]; treatment-related AE, N = 14): 3 (21) N (%)
Hypertension, Grade 3 ([2]; treatment-related AE, N = 14): 1 (7%) N (%) and 1 (7) N (%)
Hypertension, Grade 4 ([2]; treatment-related AE, N = 14): 0 (0) N (%)
Leukopenia, All Grades ([2]; treatment-related AE, N = 14): 13 (93) N (%)
Leukopenia, Grade 1 ([2]; treatment-related AE, N = 14): 1 (7) N (%)
Leukopenia, Grade 2 ([2]; treatment-related AE, N = 14): 7 (50) N (%)
Leukopenia, Grade 3 ([2]; treatment-related AE, N = 14): 5 (36) N (%)
Leukopenia, Grade 4 ([2]; treatment-related AE, N = 14): 0 (0) N (%)
Lymphocytopenia, All Grades ([2]; treatment-related AE, N = 14): 12 (86) N (%)
Lymphocytopenia, Grade 1 ([2]; treatment-related AE, N = 14): 5 (36) N (%)
Lymphocytopenia, Grade 2 ([2]; treatment-related AE, N = 14): 5 (36) N (%)
Lymphocytopenia, Grade 3 ([2]; treatment-related AE, N = 14): 2 (14) N (%)
Lymphocytopenia, Grade 4 ([2]; treatment-related AE, N = 14): 0 (0) N (%)
Nausea, All Grades ([2]; treatment-related AE, N = 14): 12 (86) N (%)
Nausea, Grade 1 ([2]; treatment-related AE, N = 14): 9 (64) N (%)
Nausea, Grade 2 ([2]; treatment-related AE, N = 14): 3 (21) N (%)
Nausea, Grade 3 ([2]; treatment-related AE, N = 14): 0 (0) N (%)
Nausea, Grade 4 ([2]; treatment-related AE, N = 14): 0 (0) N (%)
Neutropenia, All Grades ([2]; treatment-related AE, N = 14): 11 (79) N (%)
Neutropenia, Grade 1 ([2]; treatment-related AE, N = 14): 0 (0) N (%)
Neutropenia, Grade 2 ([2]; treatment-related AE, N = 14): 3 (21) N (%)
Neutropenia, Grade 3 ([2]; treatment-related AE, N = 14): 6 (43%) N (%) and 6 (43) N (%)
Neutropenia, Grade 4 ([2]; treatment-related AE, N = 14): 2 (14%) N (%) and 2 (14) N (%)
Peripheral sensory neuropathy, All Grades ([2]; treatment-related AE, N = 14): 12 (86) N (%)
Peripheral sensory neuropathy, Grade 1 ([2]; treatment-related AE, N = 14): 6 (43) N (%)
Peripheral sensory neuropathy, Grade 2 ([2]; treatment-related AE, N = 14): 4 (29) N (%)
Peripheral sensory neuropathy, Grade 3 ([2]; treatment-related AE, N = 14): 2 (14%) N (%) and 2 (14) N (%)
Peripheral sensory neuropathy, Grade 4 ([2]; treatment-related AE, N = 14): 0 (0) N (%)
Rash maculo-papular, All Grades ([2]; treatment-related AE, N = 14): 10 (71) N (%)
Rash maculo-papular, Grade 1 ([2]; treatment-related AE, N = 14): 7 (50) N (%)
Rash maculo-papular, Grade 2 ([2]; treatment-related AE, N = 14): 3 (21) N (%)
Rash maculo-papular, Grade 3 ([2]; treatment-related AE, N = 14): 0 (0) N (%)
Rash maculo-papular, Grade 4 ([2]; treatment-related AE, N = 14): 0 (0) N (%)
Thrombocytopenia, All Grades ([2]; treatment-related AE, N = 14): 11 (79) N (%)
Thrombocytopenia, Grade 1 ([2]; treatment-related AE, N = 14): 4 (29) N (%)
Thrombocytopenia, Grade 2 ([2]; treatment-related AE, N = 14): 2 (14) N (%)
Thrombocytopenia, Grade 3 ([2]; treatment-related AE, N = 14): 4 (29%) N (%) and 4 (29) N (%)
Thrombocytopenia, Grade 4 ([2]; treatment-related AE, N = 14): 1 (7%) N (%) and 1 (7) N (%)
Hospitalizations for neutropenic fevers or other treatment-related toxicities [2]: no hospitalizations
G3 or higher thrombocytopenia, patients ([2]; N = 5): 36%
G3 or higher neutropenia, patients ([2]; N = 8): 57%
Patients with Grade 2/Grade 3 neuropathy requiring dose reduction of paclitaxel ([2]; six patients): 43%
CL/F ([3]; 10 mg dose, Cycle 1 Day 1, N = 8, mean ± SD): 3.21 ± 0.84 L/h
CL/F ([3]; 10 mg dose, Cycle 1 Day 15, N = 7, mean ± SD): 2.70 ± 1.07 L/h
CL/F ([3]; 10 mg dose, Cycle 1 Day 17, N = 6, mean ± SD): 1.97 ± 1.12 L/h
CL/F ([3]; 20 mg dose, Cycle 1 Day 1, N = 4, mean ± SD): 3.87 ± 1.09 L/h
CL/F [3, 5]: 3.90 ± 2.20 L/h
Half life [3, 5]: 36.0 ± 31.7 h
CL/F ([3]; 20 mg dose, Cycle 1 Day 17, N = 2, mean ± SD): 2.47 ± 2.55 L/h
Exposure on day 15 compared to day 1 ([3]; cycle 1): 125%
AUC (exposure) on day 17 compared to day 1 ([3]; cycle 1, both dose levels): 220%
Cmax on day 17 compared to day 1 ([3]; cycle 1, both dose levels): 158%
AUC(0-inf) [3, 6]: 3.29 ± 0.749 µg·h/mL
AUC(0-inf) [3, 7]: 4.12 ± 2.14 µg·h/mL
AUC(0-inf) [3, 8]: 6.21 ± 2.61 µg·h/mL
Cmax [3, 6]: 0.203 ± 0.0927 µg/mL
Cmax [3, 7]: 0.177 ± 0.0936 µg/mL
Cmax [3, 8]: 0.259 ± 0.113 µg/mL
half-life [3, 6]: 14.7 ± 2.2 h
half-life [3, 7]: 20.1 ± 11.2 h
half-life [3, 8]: 20.6 ± 7 h
Vd/F [3, 7]: 76.8 ± 46.8 L
Vd/F [3, 8]: 55.6 ± 25.4 L
AUC(0-inf) [3, 9]: 5.53 ± 1.68 µg·h/mL
AUC(0-inf) [3, 10]: 6.73 ± 4.23 µg·h/mL
AUC(0-inf) [3, 11]: 17.4 µg·h/mL
Cmax [3, 9]: 0.324 ± 0.116 µg/mL
Cmax [3, 10]: 0.234 ± 0.025 µg/mL
Cmax [3, 11]: 0.422 ± 0.0426 µg/mL
half-life [3, 9]: 22.8 ± 12.4 h
half-life [3, 11]: 39.3 ± 39.9 h
Vd/F [3, 9]: 115 ± 38.6 L
Vd/F [3, 10]: 139 ± 37.5 L
Vd/F [3, 11]: 66.3 ± 2.4 L
pCR, patients (stage II-III TNBC; 5 of 14 patients, with paclitaxel and carboplatin): 36%
Patients with residual disease in the breast and lymph nodes (stage II-III TNBC; 5 patients, with paclitaxel and carboplatin): 36%
Overall response rate (stage II-III TNBC; 9 of 14 patients who completed chemotherapy (1 never received RO4929097)): 64%
Complete pathologic response (stage II-III TNBC; neoadjuvant, with paclitaxel and carboplatin, N = 14): 5 (36) N (%)
Residual disease (stage II-III TNBC; neoadjuvant, with paclitaxel and carboplatin, N = 14, one patient did not receive RO4929097): 9 (64)^a,b N (%)
QTc prolongation or other clinically significant ECG changes [4]: No QTc prolongation or other clinically significant ECG changes were observed
